Active and inactive are the calls of the source.
How the values were obtained:
Type in all cases: cell-based
[1] = molecular target: Inhibitor of NF-kappa-B kinase alpha/beta (Homo sapiens) (UniProt O14920+O15111); assay: Inhibition of TNF-alpha-induced IKKalpha/beta phosphorylation at Ser176/180 in human MDA-MB-231 cells after 20 mins by immunoblot analysis
[2] = molecular target: Transcription factor p65 (Homo sapiens) (UniProt Q04206); assay: Inhibition of TNF-alpha-induced Rel-A nuclear translocation in human MDA-MB-231 cells assessed as decrease in Rel-A phoshorylation at Ser536 at 20 uM pretreated for 30 mins prior to TNF-alpha stimulation measured after 60 mins by immunofluorescence microscopic analysis
Transcription factor p65 (Homo sapiens), sequence (Q04206 whole entry): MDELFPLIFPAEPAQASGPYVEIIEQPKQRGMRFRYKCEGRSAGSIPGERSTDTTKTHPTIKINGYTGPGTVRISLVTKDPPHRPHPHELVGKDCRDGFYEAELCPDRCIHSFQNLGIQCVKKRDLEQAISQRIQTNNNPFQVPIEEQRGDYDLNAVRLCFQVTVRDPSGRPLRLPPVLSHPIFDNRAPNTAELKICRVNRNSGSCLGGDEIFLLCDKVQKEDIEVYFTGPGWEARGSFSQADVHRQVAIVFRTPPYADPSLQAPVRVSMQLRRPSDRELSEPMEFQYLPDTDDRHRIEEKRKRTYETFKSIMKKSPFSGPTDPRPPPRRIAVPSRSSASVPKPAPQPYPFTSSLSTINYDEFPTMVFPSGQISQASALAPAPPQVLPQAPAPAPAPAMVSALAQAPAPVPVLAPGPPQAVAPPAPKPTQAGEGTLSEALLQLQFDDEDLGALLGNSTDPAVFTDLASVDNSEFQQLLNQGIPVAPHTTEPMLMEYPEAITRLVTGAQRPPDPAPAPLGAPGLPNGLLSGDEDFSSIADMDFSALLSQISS

[3] = molecular target: Transcription factor p65 (Homo sapiens) (UniProt Q04206); assay: Inhibition of TNF-alpha-induced Rel-A phosphorylation at Ser536 in human MDA-MB-231 cells after 60 mins by immunoblot analysis

Measured: inhibition

O=C(/C=C/c1ccccc1)c1ccc2ccccc2c1O
active: [1] Dose-dependent effect | [2] | [3] Dose-dependent effect

Reference: ChEMBL document CHEMBL3585338, “2-Hydroxy-3,4-naphthochalcone (2H-NC) inhibits TNFα-induced tumor invasion through the downregulation of NF-κB-mediated MMP-9 gene expression” (Bioorg Med Chem Lett, 2014)
